Measurements: US10208015B2, “Aryl-triazolyl pyridines as pest control agents” (BAYER ANIMAL HEALTH GMBH, priority 2014, dated 2019)
Read-outs that look alike come from different tables or passages of the source.

Tests used:
[1] = logP by HPLC on reversed-phase column (C18), EEC Directive 79/831 Annex V.A8; format: physicochemical; details: for logP: HPLC, C18, acetonitrile (0.1% formic acid)/water (0.09% formic acid) gradient
[2] = test system: Phaedon cochleariae; assay: Phaedon cochleariae spray test; format: in vivo; details: application rate 100 g/ha, after 7 days
Description: Phaedon Cochleariae—Spray Test
(§1) • Solvent: 78.0 parts by weight of acetone • 1.5 parts by weight of dimethylformamide • Emulsifier: alkylaryl polyglycol ether
(§2) To produce a suitable preparation of active compound, 1 part by weight of active compound is dissolved using the stated parts by weight of solvent and made up with water containing an emulsifier concentration of 1000 ppm until the desired concentration is attained. To produce further test concentrations, the preparation is diluted with emulsifier-containing water.
After 7 days, the efficacy in % is determined. 100% means that all the beetle larvae have been killed; 0% means that no beetle larvae have been killed.

[3] = test system: Lucilia cuprina; assay: Lucilia cuprina test; format: in vivo; details: application rate 100 ppm, L1 larvae, after 2 days
Description: (§3) • Solvent: dimethyl sulphoxide
(§4) To produce a suitable preparation of active compound, 10 mg of active compound are mixed with 0.5 ml of dimethyl sulphoxide, and the concentrate is diluted with water to the desired concentration.
About 20 L1 larvae of the Australian sheep blowfly (Lucilia cuprina) are transferred into a test vessel containing minced horsemeat and the active compound preparation of the desired concentration.
After 2 days, the kill in % is determined. 100% means that all the larvae have been killed; 0% means that no larvae have been killed.

[4] = test system: Spodoptera frugiperda; assay: Spodoptera frugiperda spray test; format: in vivo; details: application rate 100 g/ha, after 7 days
Description: Spodoptera Frugiperda—Spray Test
as §1, §2
Leaf discs of maize (Zea mays) are sprayed with an active compound preparation of the desired concentration and, after drying, populated with caterpillars of the armyworm (Spodopterafrugiperda).
After 7 days, the efficacy in % is determined. 100% means that all the caterpillars have been killed; 0% means that no caterpillars have been killed.

[5] = test system: Ctenocephalides felis; assay: Ctenocephalides felis oral test; format: in vivo; details: application rate 100 ppm in citrated cattle blood, after 2 days
From the text: Ctenocephalides felis—Oral Test • Solvent: dimethyl sulphoxide […] Dilution with citrated cattle blood gives the desired concentration. About 20 unfed adult cat fleas (Ctenocephalides felis) are placed into a chamber which is closed at the top and bottom with gauze. A metal cylinder whose bottom end is closed with parafilm is placed onto the chamber. The cylinder contains the blood/active compound preparation, which can be imbibed by the fleas through the parafilm membrane.

[6] = test system: Boophilus microplus; assay: Boophilus microplus injection test; format: in vivo; details: application rate 20 μg/animal, assessed after 7 days
Description: Boophilus microplus—Injection Test • Solvent: dimethyl sulphoxide […] The animals are transferred into dishes and kept in a climate-controlled room. Efficacy is assessed after 7 days by laying of fertile eggs. Eggs which are not visibly fertile are stored in a climate-controlled cabinet until the larvae hatch after about 42 days.

[7] = test system: Musca domestica; assay: Musca domestica test; format: in vivo; details: application rate 100 ppm, adult houseflies, after 2 days
Description: as §3, §4
Vessels containing a sponge treated with sugar solution and the active compound preparation of the desired concentration are populated with 10 adult houseflies (Musca domestica).
After 2 days, the kill in % is determined. 100% means that all of the flies have been killed; 0% means that none of the flies have been killed.

[8] = test system: Tetranychus urticae; assay: Tetranychus urticae spray test, OP-resistant; format: in vivo; details: after 6 days
Description: Tetranychus Urticae—Spray Test, OP-Resistant
as §1
To produce further test concentrations, the preparation is diluted with emulsifier-containing water.
After 6 days, the efficacy in % is determined. 100% means that all the spider mites have been killed; 0% means that none of the spider mites have been killed.

[9] = test system: Boophilus microplus Parkhurst strain, SP-resistant; assay: Boophilus microplus dip test; format: in vivo; details: application rate 100 ppm, assessed after 7 days
Description: Boophilus microplus—Dip Test
• Test animals: cattle ticks (Boophilus microplus) Parkhurst strain, SP-resistant • Solvent: dimethyl sulphoxide
10 mg of active compound are dissolved in 0.5 ml of dimethyl sulphoxide. To produce a suitable formulation, the active compound solution is diluted with water to the concentration desired in each case.
This active compound preparation is pipetted into tubes. 8-10 engorged adult female cattle ticks (Boophilus microplus) are transferred into a further tube with holes. The tube is immersed into the active compound preparation, and all the ticks are completely wetted. After the liquid has run out, the ticks are transferred on filter discs into plastic dishes and stored in a climate-controlled room.
Efficacy is assessed after 7 days by laying of fertile eggs. Eggs which are not visibly fertile are stored in a climate-controlled cabinet until the larvae hatch after about 42 days. An efficacy of 100% means that none of the ticks has laid any fertile eggs; 0% means that all the eggs are fertile.

Row | SMILES | efficacy (kill in %) [3] [%] | logP [1] | efficacy (kill in %) [5] [%] | efficacy (laying of fertile eggs) [6] [%] | efficacy (kill in %) [7] [%] | also measured
1 | CCc1cc(C(F)(C(F)(F)F)C(F)(F)F)cc(Br)c1N [2-bromo-6-ethyl-4-heptafluoroisopropylaniline] |  |  |  |  |  | log P (HPLC-MS) [1]: 4.38
2 | CCc1cc(C(F)(C(F)(F)F)C(F)(F)F)cc(Cl)c1N [2-chloro-6-ethyl-4-heptafluoroisopropylaniline] |  |  |  |  |  | log P (HPLC-MS) ([1]; HPLC-MS method a)): 4.67
3 | Cc1cc(C(F)(C(F)(F)F)C(F)(F)F)cc(C(F)(F)F)c1N [4-heptafluoroisopropyl-2-methyl-6-trifluoromethylaniline] |  |  |  |  |  | log P (HPLC-MS) ([1]; HPLC-MS method a)): 4.67
4 | COc1ncc(-c2cn(-c3c(Cl)cc(C(F)(C(F)(F)F)C(F)(F)F)cc3Cl)nn2)cc1C(=O)NC1(C#N)CC1 [Example 4] | 100 | 4.3 | 100 | 100 | 100 | efficacy in % [2]: 100%; efficacy in % [4]: 100%
5 | COc1ncc(-c2cn(-c3c(C)cc(C(F)(C(F)(F)F)C(F)(F)F)cc3C)nn2)cc1C(=O)NC1(C#N)CC1 [Example 7] | 100 | 4.2 | 100 | 100 |  | efficacy in % [2]: 100%; efficacy in % [4]: 100%
6 | COc1ncc(-c2cn(-c3c(Cl)cc(C(F)(C(F)(F)F)C(F)(F)F)cc3Cl)nn2)cc1C(=O)NC1CC1 [Example 10] | 95 | 4.4 | 100 | 100 |  | 
7 | COc1ncc(-c2cn(-c3c(C)cc(C(F)(C(F)(F)F)C(F)(F)F)cc3C)nn2)cc1C(=O)NC1CC1 [Example 11] | 100 | 4.3 | 100 | 100 | 100 | efficacy in % [2]: 100%; efficacy in % ([8]; application rate 20 g/ha): 90%; efficacy in % [4]: 100%
8 | CCc1cc(C(F)(C(F)(F)F)C(F)(F)F)cc(C)c1-n1cc(-c2cnc(Cl)c(C(=O)N(C)C3CC3)c2)nn1 [Example 19] | 100 | 4.6 | 100 | 100 | 80 | efficacy (laying of fertile eggs) [9]: 100%
9 | CCc1cc(C(F)(C(F)(F)F)C(F)(F)F)cc(C)c1-n1cc(-c2cnc(Cl)c(C(=O)NC3CC3)c2)nn1 [Example 20] | 100 | 4.1 | 100 | 100 |  | efficacy (laying of fertile eggs) [9]: 100%
10 | Cc1cc(C(F)(C(F)(F)F)C(F)(F)F)cc(Br)c1-n1cc(-c2cnc(Cl)c(C(=O)N(C)C3CC3)c2)nn1 [Example 21] | 100 | 4.4 | 100 | 100 | 100 | efficacy (laying of fertile eggs) [9]: 100%
11 | Cc1cc(C(F)(C(F)(F)F)C(F)(F)F)cc(Br)c1-n1cc(-c2cnc(Cl)c(C(=O)NC3CC3)c2)nn1 [Example 22] | 100 | 3.9 | 100 | 100 | 100 | efficacy (laying of fertile eggs) [9]: 100%
12 | CCc1cc(C(F)(C(F)(F)F)C(F)(F)F)cc(C)c1-n1cc(-c2cnc(Cl)c(C(=O)NCC(F)(F)F)c2)nn1 [Example 23] | 100 | 4.5 | 100 | 100 |  | 
13 | CCc1cc(C(F)(C(F)(F)F)C(F)(F)F)cc(C)c1-n1cc(-c2cnc(Cl)c(C(=O)NC(C)C)c2)nn1 [Example 24] |  | 4.4 | 100 | 100 |  | 
14 | CCNC(=O)c1cc(-c2cn(-c3c(C)cc(C(F)(C(F)(F)F)C(F)(F)F)cc3CC)nn2)cnc1Cl [Example 25] | 100 | 4.1 | 100 | 100 | 80 | efficacy (laying of fertile eggs) [9]: 100%
15 | Cc1cc(C(F)(C(F)(F)F)C(F)(F)F)cc(Br)c1-n1cc(-c2cnc(Cl)c(C(=O)NCC(F)(F)F)c2)nn1 [Example 26] | 100 | 4.3 | 100 | 100 | 100 | 
16 | CCNC(=O)c1cc(-c2cn(-c3c(C)cc(C(F)(C(F)(F)F)C(F)(F)F)cc3Br)nn2)cnc1Cl [Example 27] | 100 | 3.9 | 100 | 100 | 100 | efficacy (laying of fertile eggs) [9]: 100%
17 | O=C(NCC(F)(F)F)c1cc(-c2cn(-c3c(Cl)cc(-c4ccccc4)cc3Cl)nn2)cnc1Cl [Example 28] |  | 3.9 | 100 | 100 |  | 
18 | CC(C)NC(=O)c1cc(-c2cn(-c3c(Cl)cc(-c4ccccc4)cc3Cl)nn2)cnc1Cl [Example 29] |  | 3.8 |  | 100 |  | 
19 | CCNC(=O)c1cc(-c2cn(-c3c(Cl)cc(-c4ccccc4)cc3Cl)nn2)cnc1Cl [Example 30] | 100 | 3.5 | 100 | 100 |  | 
20 | CN(C(=O)c1cc(-c2cn(-c3c(Cl)cc(-c4ccccc4)cc3Cl)nn2)cnc1Cl)C1CC1 [Example 31] | 100 | 4.0 | 100 | 100 |  | 
21 | O=C(NC1CC1)c1cc(-c2cn(-c3c(Cl)cc(-c4ccccc4)cc3Cl)nn2)cnc1Cl [Example 32] | 100 | 3.5 | 100 | 100 |  | 
22 | O=C(NC1CC1)c1cc(-c2cn(-c3c(Cl)cc(C(F)(C(F)(F)F)C(F)(F)F)cc3OC(F)(F)F)nn2)cnc1Cl [Example 33] | 100 | 4.1 | 100 | 100 | 100 | efficacy (laying of fertile eggs) [9]: 100%
23 | N#CC1(NC(=O)c2cc(-c3cn(-c4c(Cl)cc(C(F)(C(F)(F)F)C(F)(F)F)cc4OC(F)(F)F)nn3)cnc2Cl)CC1 [Example 34] | 100 | 4.0 | 100 | 100 | 100 | efficacy in % [2]: 100%; efficacy in % ([8]; application rate 100 g/ha): 100%
24 | O=C(NC1CC1)c1cc(-c2cn(-c3c(Cl)cc(C(F)(C(F)(F)F)C(F)(F)F)cc3OC(F)F)nn2)cnc1Cl [Example 36] |  | 3.7 |  |  |  | 
25 | CN(C(=O)c1cc(-c2cn(-c3c(Cl)cc(C(F)(C(F)(F)F)C(F)(F)F)cc3OC(F)F)nn2)cnc1Cl)C1CC1 [Example 37] |  | 4.2 |  |  |  | 
26 | N#CC1(NC(=O)c2cc(-c3cn(-c4c(Cl)cc(C(F)(C(F)(F)F)C(F)(F)F)cc4OC(F)F)nn3)cnc2Cl)CC1 [Example 38] |  | 3.7 |  |  |  | 
